System: MV-4-11 cells
Assay: Cell Viability Assay in MV-4-11 Cells
Type: cell-based
Settings: Homo sapiens, MV4-11, 72 h, MV-4-11 cells, 72 h, Cell-Titer Glo; read-out: IC50
How it was run: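 Luminescent ATP read-out (CellTiter-Glo) after 72 h compound treatment of MV-4-11 leukaemia cells (7,000 per well, IMDM plus 10% FBS). Values expressed relative to DMSO control and derived by four-parameter non-linear regression.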

Cc1csc2ccnc(N(C(=O)c3ccc(-c4cn(CCC#N)nn4)cc3F)[C@@H]3CCCNC3)c12 [Example 881, 4-[1-(2-cyanoethyl)triazol-4-yl]-2-fluoro-N-(3-methylthieno[3,2-c]pyridin-4-yl)-N-[(3R)-3-piperidyl]benzamide]
IC50: 150 nM

Cc1csc2ccnc(N(C(=O)c3ccc(-c4nnc(CCC#N)s4)cc3)[C@@H]3CCCNC3)c12 [Example 882, 4-[5-(2-cyanoethyl)-1,3,4-thiadiazol-2-yl]-N-(3-methylthieno[3,2-c]pyridin-4-yl)-N-[(3R)-3-piperidyl]benzamide]
IC50: 180 nM

Cc1csc2ccnc(N(C(=O)c3ccc(-c4nnc(CCC#N)s4)cc3F)[C@@H]3CCCNC3)c12 [Example 883, 4-[5-(2-cyanoethyl)-1,3,4-thiadiazol-2-yl]-2-fluoro-N-(3-methylthieno[3,2-c]pyridin-4-yl)-N-[(3R)-3-piperidyl]benzamide]
IC50: 160 nM

Cc1cc(Cl)cc2ccnc(N(C(=O)c3ccc(-c4cn(C)nn4)nc3)[C@@H]3CCCNC3)c12 [Example 884, N-(6-chloro-8-methyl-1-isoquinolyl)-6-(1-methyltriazol-4-yl)-N-[(3R)-3-piperidyl]pyridine-3-carboxamide]
IC50: 57 nM

CCn1cc(-c2ccc(C(=O)N(c3nccc4scc(C)c34)[C@@H]3CCCNC3)cn2)nn1 [Example 885, 6-(1-ethyltriazol-4-yl)-N-(3-methylthieno[3,2-c]pyridin-4-yl)-N-[(3R)-3-piperidyl]pyridine-3-carboxamide]
IC50: 110 nM

C=Cc1csc2ccnc(N(C(=O)c3ccc(-c4nnc(C)s4)cc3F)[C@@H]3CCCNC3)c12 [Example 886, 2-fluoro-4-(5-methyl-1,3,4-thiadiazol-2-yl)-N-[(3R)-3-piperidyl]-N-(3-vinylthieno[3,2-c]pyridin-4-yl)benzamide]
IC50: 180 nM

C=C(C)c1ccnc(N(C(=O)c2ccc(-c3cn(C)nn3)cc2F)[C@@H]2CCCNC2)c1 [Example 887, 2-fluoro-N-(4-isopropenyl-2-pyridyl)-4-(1-methyltriazol-4-yl)-N-[(3R)-3-piperidyl]benzamide]
IC50: > 6300 nM

Cc1cccc2ccnc(N(C(=O)c3ccc(-c4cn(CCC#N)nn4)cc3F)[C@@H]3CCCNC3)c12 [Example 888, 4-[1-(2-cyanoethyl)triazol-4-yl]-2-fluoro-N-(8-methyl-1-isoquinolyl)-N-[(3R)-3-piperidyl]benzamide]
IC50: 26 nM

[2H]C([2H])([2H])Oc1cc(C)c2c(N(C(=O)c3ccc(-c4cn(CC)nn4)cc3F)[C@@H]3CCCNC3)nccc2c1 [Example 889, 4-(1-ethyltriazol-4-yl)-2-fluoro-N-[8-methyl-6-(trideuteriomethoxy)-1-isoquinolyl]-N-[(3R)-3-piperidyl]benzamide]
IC50: 41 nM

[2H]C([2H])([2H])n1cc(-c2ccc(C(=O)N(c3nccc4cccc(C)c34)[C@@H]3CCCNC3)c(F)c2)nn1 [Example 890, 2-fluoro-N-(8-methyl-1-isoquinolyl)-N-[(3R)-3-piperidyl]-4-[1-(trideuteriomethyl)triazol-4-yl]benzamide]
IC50: 60 nM

[2H]C([2H])([2H])n1cc(-c2ccc(C(=O)N(c3nccc4cc(F)cc(C)c34)[C@@H]3CCCNC3)c(F)c2)nn1 [Example 891, 2-fluoro-N-(6-fluoro-8-methyl-1-isoquinolyl)-N-[(3R)-3-piperidyl]-4-[1-(trideuteriomethyl)triazol-4-yl]benzamide]
IC50: 44 nM

[2H]C([2H])([2H])n1cc(-c2ccc(C(=O)N(c3nccc4cc(Cl)cc(C)c34)[C@@H]3CCCNC3)cc2)nn1 [Example 892, N-(6-chloro-8-methyl-1-isoquinolyl)-N-[(3R)-3-piperidyl]-4-[1-(trideuteriomethyl)triazol-4-yl] benzamide]
IC50: 51 nM

[2H]C([2H])([2H])n1cc(-c2ccc(C(=O)N(c3nccc4cc(Cl)cc(C)c34)[C@@H]3CCCNC3)c(F)c2)nn1 [Example 893, N-(6-chloro-8-methyl-1-isoquinolyl)-2-fluoro-N-[(3R)-3-piperidyl]-4-[1-(trideuteriomethyl)triazol-4-yl]benzamide]
IC50: 40 nM

[2H]C([2H])([2H])c1nnc(-c2ccc(C(=O)N(c3nccc4scc(C)c34)[C@@H]3CCCNC3)cc2)s1 [Example 894, N-(3-methylthieno[3,2-c]pyridin-4-yl)-N-[(3R)-3-piperidyl]-4-[5-(trideuteriomethyl)-1,3,4-thiadiazol-2-yl]benzamide]
IC50: 130 nM

COCc1nnc(-c2ccc(C(=O)N(c3nccc4cc(Cl)cc(C)c34)[C@@H]3CCCNC3)cn2)s1 [Example 895, N-(6-chloro-8-methyl-1-isoquinolyl)-6-[5-(methoxymethyl)-1,3,4-thiadiazol-2-yl]-N-[(3R)-3-piperidyl]pyridine-3-carboxamide]
IC50: 53 nM

COCc1nnc(-c2ccc(C(=O)N(c3nccc4cc(C)cc(C)c34)[C@@H]3CCCNC3)cn2)s1 [Example 896, N-(6,8-dimethyl-1-isoquinolyl)-6-[5-(methoxymethyl)-1,3,4-thiadiazol-2-yl]-N-[(3R)-3-piperidyl] pyridine-3-carboxamide]
IC50: 46 nM

Cc1nnc(-c2ccc(C(=O)N(c3nccc4c(C)ccc(C)c34)[C@@H]3CCCNC3)cn2)s1 [Example 897, N-(5,8-dimethyl-1-isoquinolyl)-6-(5-methyl-1,3,4-thiadiazol-2-yl)-N-[(3R)-3-piperidyl] pyridine-3-carboxamide]
IC50: 140 nM

Cc1nnc(-c2ccc(C(=O)N(c3nccc4c(Cl)ccc(C)c34)[C@@H]3CCCNC3)cn2)s1 [Example 898, N-(5-chloro-8-methyl-1-isoquinolyl)-6-(5-methyl-1,3,4-thiadiazol-2-yl)-N-[(3R)-3-piperidyl] pyridine-3-carboxamide]
IC50: 120 nM

[2H]C([2H])([2H])c1nnc(-c2ccc(C(=O)N(c3nccc4cccc(C)c34)[C@@H]3CCCNC3)c(F)c2)s1 [Example 899, 2-fluoro-N-(8-methyl-1-isoquinolyl)-N-[(3R)-3-piperidyl]-4-[5-(trideuteriomethyl)-1,3,4-thiadiazol-2-yl]benzamide]
IC50: 150 nM

CCc1nnc(-c2ccc(C(=O)N(c3nccc4cccc(C)c34)[C@@H]3CCCNC3)cn2)s1 [Example 900, 6-(5-ethyl-1,3,4-thiadiazol-2-yl)-N-(8-methyl-1-isoquinolyl)-N-[(3R)-3-piperidyl] pyridine-3-carboxamide]
IC50: 70 nM

COc1cc(C)c2c(N(C(=O)c3ccc(-c4nnc(C)s4)nc3)[C@@H]3CCCNC3)nccc2c1 [Example 901, N-(6-methoxy-8-methyl-1-isoquinolyl)-6-(5-methyl-1,3,4-thiadiazol-2-yl)-N-[(3R)-3-piperidyl]pyridine-3-carboxamide]
IC50: 48 nM

COc1ccc(C)c2c(N(C(=O)c3ccc(-c4nnc(C)s4)nc3)[C@@H]3CCCNC3)nccc12 [Example 902, N-(5-methoxy-8-methyl-1-isoquinolyl)-6-(5-methyl-1,3,4-thiadiazol-2-yl)-N-[(3R)-3-piperidyl] pyridine-3-carboxamide]
IC50: 383 nM

COCCc1nnc(-c2ccc(C(=O)N(c3nccc4cc(C)cc(C)c34)[C@@H]3CCCNC3)cn2)s1 [Example 903, N-(6,8-dimethyl-1-isoquinolyl)-6-[5-(2-methoxyethyl)-1,3,4-thiadiazol-2-yl]-N-[(3R)-3-piperidyl]pyridine-3-carboxamide]
IC50: 45 nM

COCCCc1nnc(-c2ccc(C(=O)N(c3nccc4cc(C)cc(C)c34)[C@@H]3CCCNC3)cn2)s1 [Example 904, N-(6,8-dimethyl-1-isoquinolyl)-6-[5-(3-methoxypropyl)-1,3,4-thiadiazol-2-yl]-N-[(3R)-3-piperidyl]pyridine-3-carboxamide]
IC50: 75 nM

[2H]C([2H])([2H])c1nnc(-c2ccc(C(=O)N(c3nccc4cc(OC)cc(C)c34)[C@@H]3CCCNC3)cn2)s1 [Example 905, N-(6-methoxy-8-methyl-1-isoquinolyl)-N-[(3R)-3-piperidyl]-6-[5-(trideuteriomethyl)-1,3,4-thiadiazol-2-yl]pyridine-3-carboxamide]
IC50: 62 nM

[2H]C([2H])([2H])c1nnc(-c2ccc(C(=O)N(c3nccc4cc(C)cc(C)c34)[C@@H]3CCCNC3)c(F)c2)s1 [Example 906, N-(6,8-dimethyl-1-isoquinolyl)-2-fluoro-N-[(3R)-3-piperidyl]-4-[5-(trideuteriomethyl)-1,3,4-thiadiazol-2-yl]benzamide]
IC50: 48 nM

[2H]C([2H])([2H])c1nnc(-c2ccc(C(=O)N(c3nccc4cc(C)cc(C)c34)[C@@H]3CCCNC3)cc2)s1 [Example 907, N-(6,8-dimethyl-1-isoquinolyl)-N-[(3R)-3-piperidyl]-4-[5-(trideuteriomethyl)-1,3,4-thiadiazol-2-yl]benzamide]
IC50: 130 nM

[2H]C([2H])([2H])c1nnc(-c2ccc(C(=O)N(c3nccc4cc(OC)cc(C)c34)[C@@H]3CCCNC3)cc2)s1 [Example 908, N-(6-methoxy-8-methyl-1-isoquinolyl)-N-[(3R)-3-piperidyl]-4-[5-(trideuteriomethyl)-1,3,4-thiadiazol-2-yl]benzamide]
IC50: 77 nM

[2H]C([2H])([2H])Oc1cc(C)c2c(N(C(=O)c3ccc(-c4nnc(C)s4)nc3)[C@@H]3CCCNC3)nccc2c1 [Example 909]
IC50: 62 nM

COCCc1nnc(-c2ccc(C(=O)N(c3nccc4cccc(C)c34)[C@@H]3CCCNC3)cn2)s1 [Example 910, (R)-6-(5-(2-methoxyethyl)-1,3,4-thiadiazol-2-yl)-N-(8-methylisoquinolin-1-yl)-N-(piperidin-3-yl)nicotinamide]
IC50: 97 nM

COc1cc(C)c2c(N(C(=O)c3ccc(-c4nnc(C)s4)nc3)[C@@H]3CCCNC3)nccc2c1F [Example 911, N-(5-fluoro-6-methoxy-8-methyl-1-isoquinolyl)-6-(5-methyl-1,3,4-thiadiazol-2-yl)-N-[(3R)-3-piperidyl]pyridine-3-carboxamide]
IC50: 140 nM

Cc1csc2ccnc(N(C(=O)c3ccc(-c4nnc(CCC#N)s4)nc3)[C@@H]3CCCNC3)c12 [Example 912, 6-[5-(2-cyanoethyl)-1,3,4-thiadiazol-2-yl]-N-(3-methylthieno[3,2-c]pyridin-4-yl)-N-[(3R)-3-piperidyl]pyridine-3-carboxamide]
IC50: 170 nM

— patent US20240400555A1 (Initial Therapeutics, Inc., priority 2023, published 2024)
